Laboratory results: patent publication US12186283B2, “Bismuth-thiol compositions and methods of use” (Microbion Corporation, priority 2018, dated 2025)

How the values were obtained:
Pseudomonas aeruginosa [1] = conditions: P. aeruginosa ATCC 27853, QC organism; cited from earlier work
Escherichia coli [2] = assay: Broth microdilution MIC (Example 12)
Acinetobacter baumannii = assay: Broth microdilution MIC (Example 12)
Escherichia coli [3] = conditions: E. coli ATCC 25922, QC organism; cited from earlier work
Pseudomonas aeruginosa [4] = assay: Broth microdilution MIC (Example 12)
Klebsiella pneumoniae = assay: Broth microdilution MIC (Example 12)

CC(C)(O/N=C(\C(=O)N[C@@H]1C(=O)N2C(C(=O)[O-])=C(C[n+]3ccccc3)CS[C@H]12)c1csc(N)n1)C(=O)O [CAZ]
4 µg/mL: MIC (Klebsiella pneumoniae; Klebsiella pneumoniae CDC 126, ESBL/KPC) | MIC (Klebsiella pneumoniae; Klebsiella pneumoniae MMX 9029, ESBL)
16 µg/mL: MIC (Escherichia coli [2]; Escherichia coli MMX 5758, ESBL)
(0.06-0.5) μg/mL: MIC, QC range (Escherichia coli [3])
32 µg/mL: MIC (Escherichia coli [2]; Escherichia coli MMX 5745, KPC) | MIC (Pseudomonas aeruginosa [4]; Pseudomonas aeruginosa CDC 444, VIM) | MIC (Pseudomonas aeruginosa [4]; Pseudomonas aeruginosa CDC 518, KPC/AmpC)
2 µg/mL: MIC (Pseudomonas aeruginosa [4]; P. aeruginosa ATCC 27853, QC organism)
64 µg/mL: MIC (Escherichia coli [2]; Escherichia coli CDC 451, KPC) | MIC (Acinetobacter baumannii; Acinetobacter baumannii CDC 273, ESBL/OXA) | MIC (Acinetobacter baumannii; Acinetobacter baumannii CDC 284, ESBL/OXA) | MIC (Acinetobacter baumannii; Acinetobacter baumannii CDC 307, OXA) | MIC (Acinetobacter baumannii; Acinetobacter baumannii CDC 308, ESBL/OXA) | MIC (Pseudomonas aeruginosa [4]; Pseudomonas aeruginosa CDC 230, VIM/OXA) | MIC (Pseudomonas aeruginosa [4]; Pseudomonas aeruginosa CDC 356, KPC) | MIC (Pseudomonas aeruginosa [4]; Pseudomonas aeruginosa CDC 516, KPC/AmpC)
>64 µg/mL: MIC (Escherichia coli [2]; Escherichia coli ATCC BAA-2471, NDM) | MIC (Escherichia coli [2]; Escherichia coli CDC 114, ESBL/KPC) | MIC (Escherichia coli [2]; Escherichia coli CDC 118, ESBL/NDM) | MIC (Escherichia coli [2]; Escherichia coli CDC 435, NDM) | MIC (Escherichia coli [2]; Escherichia coli CDC 503, ESBL/NDM) | MIC (Escherichia coli [2]; Escherichia coli MMX 5755, ESBL) | MIC (Escherichia coli [2]; Escherichia coli MMX 5756, ESBL) | MIC (Acinetobacter baumannii; Acinetobacter baumannii CDC 274, ESBL/OXA) | MIC (Acinetobacter baumannii; Acinetobacter baumannii CDC 275, ESBL/OXA) | MIC (Acinetobacter baumannii; Acinetobacter baumannii CDC 277, ESBL/OXA) | MIC (Acinetobacter baumannii; Acinetobacter baumannii CDC 311, OXA) | MIC (Acinetobacter baumannii; Acinetobacter baumannii CDC 312, OXA) | MIC (Acinetobacter baumannii; Acinetobacter baumannii CDC 313, ESBL/OXA) | MIC (Acinetobacter baumannii; Acinetobacter baumannii NCTC 13304, OXA) | MIC (Pseudomonas aeruginosa [4]; Pseudomonas aeruginosa CDC 231, KPC/OXA) | MIC (Pseudomonas aeruginosa [4]; Pseudomonas aeruginosa CDC 241, IMP/OXA) | MIC (Pseudomonas aeruginosa [4]; Pseudomonas aeruginosa CDC 246, NDM/OXA) | MIC (Pseudomonas aeruginosa [4]; Pseudomonas aeruginosa CDC 250, NDM/OXA) | MIC (Pseudomonas aeruginosa [4]; Pseudomonas aeruginosa CDC 439, IMP) | MIC (Pseudomonas aeruginosa [4]; Pseudomonas aeruginosa CDC 457, VIM) | MIC (Klebsiella pneumoniae; K. pneumoniae ATCC BAA-1705, QC organism) | MIC (Klebsiella pneumoniae; Klebsiella pneumoniae ATCC BAA-1705, ESBL/KPC) | MIC (Klebsiella pneumoniae; Klebsiella pneumoniae CDC 112, KPC) | MIC (Klebsiella pneumoniae; Klebsiella pneumoniae CDC 113, ESBL/KPC) | MIC (Klebsiella pneumoniae; Klebsiella pneumoniae CDC 115, ESBL/KPC) | MIC (Klebsiella pneumoniae; Klebsiella pneumoniae CDC 120, ESBL/KPC) | MIC (Klebsiella pneumoniae; Klebsiella pneumoniae CDC 129, ESBL/KPC) | MIC (Klebsiella pneumoniae; Klebsiella pneumoniae CDC 135, ESBL/VIM) | MIC (Klebsiella pneumoniae; Klebsiella pneumoniae CDC 138, ESBL/NDM) | MIC (Klebsiella pneumoniae; Klebsiella pneumoniae CDC 158, ESBL/NDM/OXA)
(1-4) μg/mL: MIC, QC range (Pseudomonas aeruginosa [1])
0.12 µg/mL: MIC (Escherichia coli [2]; E. coli ATCC 35218, QC organism) | MIC (Escherichia coli [2]; Escherichia coli ATCC 35218, ESBL)
0.25 µg/mL: MIC (Escherichia coli [2]; E. coli ATCC 25922, QC organism)
